{"source": "patent US20030124554A1", "about": "“Screening method for compounds capable of modularing egr-1-regulated expression” (priority 2002, published 2003)", "tested_on": "human cell co-culture system", "experiment": "In vitro angiogenesis co-culture system (angiogenesis kit, TCS Biologicals), tubule formation", "type": "cell-based", "settings": "11 days co-culture; PECAM-1 staining; Egr-1 DNA 0.5-2.5 μg per well, VEGF protein 2 ng/ml, suramin 20 μM", "experimental": "Egr-1 under the control of the hCMV promoter (Houston et al, Arterioscler. Thromb. Vasc. Biol., 19; 281-289, 1999) was transfected into a human cell co-culture system designed to measure angiogenesis in vitro. The angiogenesis kit (TCS Biologicals) was used as described according to the manufacturer's instructions using VEGF protein (2 ng/ml) and suramin (20 μM) as positive and negative controls respectively for angiogenesis.\nOptimisation of transfection in the co-culture system was performed using pGL3 control luciferase (Promega) with 1.0 μg and 0.5 μg CMV-β gal as a normalising plasmid for transfection control. Two ratios of lipid: DNA (v/w) were used; 2:1 and 4:1 (FIG. 3a.). CMV Egr-1 DNA was transfected at 0.5, 1.0, 1.5 and 2.5 μg per well in triplicate in a 24 well microtitre plate using Mirus Transit reagent (Cambridge Biosciences) at a ratio of 2:1 v/w DNA. VEGF protein positive control and suramin negative control was added to triplicate wells. After 11 days co-culture angiogenesis was determined by staining of cells for the endothelial cell marker PECAM-1 and visualisation using BCIP/NBT substrate.\nRepresentative images of tubule formation using all four doses of Egr-1 expression plasmid together with VEGF (positive control) and suramin (negative control) were captured and processed by image analysis using Quantimet 600 image analyser and associated software. […]", "data": [{"smiles": "Cc1ccc(C(=O)Nc2ccc(S(=O)(=O)O)c3cc(S(=O)(=O)O)cc(S(=O)(=O)O)c23)cc1NC(=O)c1cccc(NC(=O)Nc2cccc(C(=O)Nc3cc(C(=O)Nc4ccc(S(=O)(=O)O)c5cc(S(=O)(=O)O)cc(S(=O)(=O)O)c45)ccc3C)c2)c1", "note": "[suramin]", "values": [{"measurement": "tubule formation", "result": "Decreased tubule formation"}]}]}
